Data taken from EPA's ToxValDB 9.5 (doi:10.2903/j.efsa.2016.4420).
Values after ≈ are worked out from the molar mass of the structure shown.

Experiments:
[1] = tested on: Canidae; conditions: chronic; duration: 2 years; Dog Other; histopathology: nonneoplastic
[2] = tested on: Oncorhynchus mykiss; conditions: acute; duration: 96 hours; mortality
[3] = chronic; duration: 128 days; other
[4] = tested on: Tagia sp.; conditions: chronic/long-term; growth
[5] = tested on: Folsomia candida; conditions: chronic/long-term; mortality
[6] = tested on: Bibionidae; conditions: chronic/long-term
[7] = tested on: Pimephales promelas; conditions: chronic/long-term; reproduction
[8] = tested on: Rattus norvegicus
[9] = tested on: Danio rerio; conditions: chronic
[10] = tested on: Apis mellifera; conditions: acute, mortality
[11] = tested on: Anas platyrhynchos
[12] = tested on: Oryctolagus sp.; conditions: developmental; development
[13] = tested on: Daphnia magna; conditions: chronic/long-term; duration: 21 days; reproduction
[14] = tested on: Aphidius rhopalosiphi; assay: LR50; higher = less toxic; conditions: not reported; mortality

Work on `CCC(CC)Nc1c([N+](=O)[O-])cc(C)c(C)c1[N+](=O)[O-]` [Pendimethalin] yielded an NOAEL [1] of 12.5 mg/kg-day, an LC50 [2] of 0.196 µg/mL (≈ 0.697 µM) and an NOEC [3] of 0.00023 mg/L. For the same molecule, the NOEC [4] was 33.5 mg/kg, the NOEC [5] was 193 mg/kg and the NOEC ([6]; duration: 28 days) was 227 mg/kg. For the same molecule, the NOEC ([6]; duration: 30 days) was 0.082 mg/L, the NOEC [7] was 0.0063 mg/L and the LD50 ([8]; acute, mortality) was 3930 mg/kg-day. It also gave an NOAEL ([8]; reproduction developmental, body weight) of 30 mg/kg-day, an NOEC [9] of 0.032 mg/L and an LD50 ([10]; dermal) greater than 100 µg/piece. It also gave an LD50 ([10]; oral, unspecified) greater than 101 µg/piece, an LD50 ([11]; acute, oral, unspecified, mortality) of 1420 mg/kg-day and an NOEL ([11]; reproductive) of 17.5 mg/kg-day. The NOAEL [12] was 30 mg/kg-day, the NOEC [13] was 0.0145 mg/L and the LR50 [14] was 1200 g/ha.
